According to patent US20060241296A1, “Vanilloid receptor ligands and their use in treatments” (priority 2005, published 2006):

Row | melting point [°C] | SMILES
1 | 178 to 179 | OC1CCc2cccc(Nc3cc(-c4ccc(C(F)(F)F)cc4)ncn3)c2C1 (centres unmarked) [Example 1, 8-(6-(4-(Trifluoromethyl)phenyl)pyrimidin-4-ylamino)-1,2,3,4-tetrahydro-naphthalen-2-ol]
2 | 231 to 232 | O[C@@H]1Cc2c(cccc2Nc2cc(-c3ccc(C(F)(F)F)cc3)ncn2)C[C@@H]1O (racemic) [Example 30, (±)-5-(6-(4-(Trifluoromethyl)phenyl)pyrimidin-4-ylamino)-1,2,3,4-tetrahydronaphthalene-2,3-cis-diol]
3 | 192 | OC1CCc2c(Br)ccc(Nc3cc(-c4ccc(C(F)(F)F)cc4)ncn3)c2C1 (centres unmarked) [Example 37, 5-Bromo-8-(6-(4-(trifluoromethyl)phenyl)pyrimidin-4-ylamino)-1,2,3,4-tetrahydronaphthalen-2-ol]

Second part, the molecule before the results:

Row | SMILES | melting point [°C]
4 | O[C@@H]1Cc2cccc(Nc3cc(-c4ccc(C(F)(F)F)cc4)ncn3)c2C[C@H]1O (racemic) [Example 28, (±)-5-(6-(4-(Trifluoromethyl)phenyl)pyrimidin-4-ylamino)-1,2,3,4-tetrahydronaphthalene-2,3-trans-diol] | 286 to 289
5 | Nc1cc(C(F)(F)F)ccc1-c1cc(Nc2cccc3c2C[C@@H](O)[C@@H](O)C3)ncn1 (racemic) [Example 31, (±)-5-(6-(2-Amino-4-(trifluoromethyl)phenyl)pyrimidin-4-ylamino)-1,2,3,4-tetrahydronaphthalene-2,3-cis-diol] | 233 to 234
